According to patent US8815499B2, “In situ detoxification of fermentation inhibitors with reducing agents” (priority 2009, dated 2014):
Where two headings read alike, the source gives them in different places.

What was measured:
[1] = Fermentation of sugar solution treated with sodium dithionite; format: cell-based; details: Saccharomyces cerevisiae, Saccharomyces cerevisiae yeast cells in fermentation, read-out: Viable cells
[2] = tested on: yeast Saccharomyces cerevisiae; assay: Simultaneous saccharification and fermentation (SSF) of spruce slurry; format: cell-based; details: for Ethanol concentration: after 70 hours
Description: Addition of sodium dithionite and sodium sulphite was tested in an SSF process. Spruce was pretreated as described in Example 1 above. The spruce slurry was adjusted to pH 5.4 with a 5 M solution of sodium hydroxide. Ten 250-mL shake flasks equipped with magnetic stirrer bars were filled with 100 g of spruce slurry. Sodium dithionite or sodium sulphite was added to the slurries to final concentrations of 7.5 and 10 mM. The additions were performed at room temperature (23° C.) for 10 min with stirring. Duplicate experiments were made. Cellulase and cellobiase preparations were prepared and added to the slurry using the enzyme activity loadings as described in Example 1 above. Further, the yeast inoculum was prepared according to Example 1 above. Inoculums were added to give a start concentration of 2.0 g/L (cell dry weight) in every flask. No source of extra nutrients was added. For comparison, two flasks with spruce slurry to which no reducing agents had been added were included in the experiment. The flasks were incubated at 35° C. for 69 h in a water bath with magnetic stirring. The flasks were sealed with Parafilm (Pechiney Plastic Packaging Company, Chicago, Ill., USA) to prevent evaporation of ethanol. Samples were withdrawn for analysis of ethanol according to Example 1 above.
A spruce slurry was prepared according to Examples 1 and 2 above. Different flasks were filled with 100 g each of the spruce slurry and were subjected to a SSF process according to Example 2 above, but with different amounts of dithionite and sulphite added. The produced ethanol was monitored during the fermentation. […]

[3] = tested on: baker's yeast (Saccharomyces cerevisiae); format: cell-based; details: for Glucose consumption rates and amounts of ethanol produced: FIGS. 1 and 2
Description: The pH of the sugarcane bagass and spruce hydrolysates were adjusted to 5.5 with a 5 M solution of sodium hydroxide. The conditioning of each hydrolysate was performed in eight 100-mL glass vessels equipped with magnetic stirrer bars. 26 mL hydrolysate was added to all vessels, and the vessels were placed on a magnetic stirrer plate (IKA-Werke, Staufen, Germany). Sodium dithionite (chemical grade; >87%, Merck, Darmstadt, Germany) was added to hydrolysates in the concentrations 5 and 10 mM. Additions of sodium sulphite to 5 and 10 mM were also performed. The additions were made at room temperature (23° C.) and the samples were kept for 10 min with stirring. The experiments were performed in duplicates.
The efficiency of the additions of the reducing agents was compared with alkali detoxification.
Ethanol measurements were performed by using an enzymatic kit (Ethanol UV-method, Boehringer Mannheim GmbH, Mannheim, Germany). Fermentation experiments were performed to evaluate the effectiveness of the additions and treatments. For comparison, untreated hydrolysates were included in the fermentation experiments as well as reference fermentations of sugar-based medium with an amount of fermentable sugars (i.e. glucose and mannose) corresponding to that in the hydrolysate samples. The fermentations were carried out using baker's yeast (Saccharomyces cerevisiae) (Jästbolaget AB, Rotebro, Sweden). The yeast inoculum was prepared in 750-mL cotton-plugged shake flasks with 300 mL YEPD medium ([…], 2% D-glucose). The flasks were inoculated and incubated with agitation at 30° C. for approximately 12 h. The cells were harvested in the late exponential growth phase by centrifugation (Hermla Z206A, Hermle Labortechnik GmbH, Wehingen, Germany) at 1,500 g for 5 min. The cells were resuspended in an appropriate amount of sterile water to achieve an inoculum consisting of 2.0 g/L (cell dry weight) in all fermentation vessels. The fermentation was carried out in 14 25-mL glass flasks equipped with magnets for stirring and sealed with rubber plugs pierced with cannulas for letting out carbon dioxide. The hydrolysate samples (23.75 mL), or alternatively the sugar solution for reference fermentations, were added to the fermentation flasks along with 0.5 mL of a nutrient solution (150 g/L yeast extract, 75 g/L (NH4)2HPO4, 3.75 g/L MgSO4.7 H2O, 238.2 g/L NaH2PO4.H2O), and 0.75 mL of yeast inoculum. The flasks were incubated at 30° C. in a water bath with magnetic stirring (IKA-Werke). Samples for measurement of sugars and ethanol were withdrawn during the fermentation. The glucose levels during the fermentation were estimated by using a glucometer (Glucometer Elite XL, Bayer AG, Leverkusen, Germany).

[4] = tested on: yeast Saccharomyces cerevisiae; assay: Fermentation of sugar solution with model inhibitor coniferyl aldehyde; details: for viability at 10000 µM: Saccharomyces cerevisiae, read-out: Viable cells
Description: A sugar solution (glucose 18 g/L, mannose 14 g/L) with a coniferyl aldehyde concentration of 2.5 mM was prepared. Half of the solution was treated with 10 mM of sodium dithionite and the rest of the solution was left untreated as a reference. Fermentation was performed with the yeast Saccharomyces cerevisiae as described in the previous Examples.

[5] = tested on: yeast Saccharomyces cerevisiae; assay: Simultaneous saccharification and fermentation (SSF) of sugarcane bagass slurry; format: cell-based; details: 7.5 and 10 mM, FIG. 9
Description: SSF experiments were also performed with sugarcane bagass slurries. […] Reducing agents, dithionite and sulphite, respectively, were added 10 min prior to inoculum in concentrations of studied 7.5 and 10 mM. The ethanol concentration was measured after 13 and 45 hours according to the protocol described in Example 1.

[6] = acid spruce hydrolysate, 2.5-15 mM, Table 4
[7] = tested on: yeast Saccharomyces cerevisiae; details: for Ethanol concentration / Productivity / Yield: 15.0 mM; for viability at 10000 µM: Saccharomyces cerevisiae, read-out: Viable cells; for Fermentability (glucose consumption): acid spruce hydrolysate
Description: A spruce slurry was prepared an subjected to acidic hydrolysis as described in Example 6. […] Sodium dithionite was added to different samples to concentrations of 2.5, 5, 7.5, 10, 12.5, and 15 mM. The treatments were performed at 21° C. for 5 min with stirring. In addition, treatments with 0.1% (7.9 mM) and 1% (79.3 mM) sodium sulphite were performed. […] Furthermore, a sugar solution (glucose 18 g/L, mannose 14 g/L) was prepared to evaluate if the effect of the sodium dithionite treatment was due to an effect on the hydrolysate or the ethanolic fermentation with yeast. Half of the sugar solution was treated with 10 mM sodium dithionite, whereas the rest was left untreated as a reference. The volumes of treated and untreated samples were equalized with water and the pH was adjusted to pH 5.5 prior to the fermentation. Fermentation was performed with the yeast Saccharomyces cerevisiae as described in the previous Examples.
Spruce hydrolysate samples were prepared as in Example 6.
Two samples were treated with DTT to 2 and 20 mM, respectively, two samples were treated with ascorbic acid to 10 and 100 mM, respectively and two samples were treated with glutathione to 1 and 10 mM, respectively.
The treatment time was 3 h for all samples and fermentation was performed as described in the previous Examples.

[8] = bagass hydrolysate, 6 h fermentation, 10 mM
[9] = spruce hydrolysate, 14 h fermentation, 10 mM

SMILES: O=S([O-])S(=O)[O-].[Na+].[Na+] [Dithionite, Sodium dithionite]
- viability at 2.25 h, 10 mM ([1]; pH 5.5, fermentation time 2.25 h): 80.8 ± 4.5%
- viability at 7 h, 10 mM ([1]; pH 5.5, fermentation time 7 h): 84.3 ± 2.9%
- Ethanol concentration ([2]; 2.5 mM): about 10 g/L
- Ethanol concentration ([2]; 5 mM): 35 to 40 g/L
- Ethanol concentration ([2]; 7.5 mM): highest ethanol production
- Time after which ethanol formation leveled off ([2]; 10 mM, FIG. 5): about 45 h
- Improvement of ethanol production, dithionite versus sulphite ([2]; 10 mM, FIG. 8): better improvement than the addition of sulphite
- Ethanol concentration ([2]; 10 mM): highest ethanol production
- Ethanol concentration ([2]; 15 mM): highest ethanol production
- Ethanol concentration ([2]; 20 mM): 35 to 40 g/L
- Ethanol concentration ([2]; 30 mM): about 30 g/L
- Ethanol production compared to the untreated hydrolysate ([2]; 7.5 and 10 mM, FIG. 5): higher ethanol production
- Balanced ethanol yield [3, 8]: 0.28 g EtOH/Σglucose & mannose prior to detoxification
- Productivity [3, 8]: 3.9 g EtOH × L^−1 × h^−1
- Yield [3, 8]: 0.34 g EtOH/g consumed glucose & mannose
- Ethanol production ([3]; bagass hydrolysate, 6 h fermentation, FIG. 4): high ethanol production
- Glucose consumption rates and amounts of ethanol produced ([3]; spruce hydrolysate, 5 mM): substantial improvement
- Glucose consumption rates and amounts of ethanol produced ([3]; spruce hydrolysate, 10 mM): comparable to those of the reference fermentation
- Balanced ethanol yield [3, 9]: 0.34 g EtOH/Σglucose & mannose prior to detoxification
- Productivity [3, 9]: 2.5 g EtOH × L^−1 × h^−1
- Yield [3, 9]: 0.37 g EtOH/g consumed glucose & mannose
- viability at 10000 µM ([4]; 2.25 h): 76.7%
- viability at 10000 µM ([4]; 7 h): 75 ± 8%
- Glucose consumption rate ([4]; sugar solution with coniferyl aldehyde (2.5 mM), sodium dithionite 10 mM, FIG. 12): much higher
- Fermentability (ethanol production after 13 and 45 hours) [5]: improved fermentability
- Degradation of monosaccharide [6]: No significant degradation
- Ethanol concentration ([7]; 2.75 h): 5.07 g/L
- Productivity ([7]; 2.75 h): 1.84 g EtOH × L^−1 × h^−1
- Yield ([7]; 2.75 h): 0.37 g EtOH/g consumed glucose and mannose
- Ethanol concentration ([7]; 4.25 h): 9.81 g/L
- Productivity ([7]; 4.25 h): 2.31 g EtOH × L^−1 × h^−1
- Yield ([7]; 4.25 h): 0.44 g EtOH/g consumed glucose and mannose
- Ethanol concentration ([7]; 6.25 h): 14.59 g/L
- Productivity ([7]; 6.25 h): 2.33 g EtOH × L^−1 × h^−1
- Yield ([7]; 6.25 h): 0.47 g EtOH/g consumed glucose and mannose
- Ethanol concentration ([7]; 9.25 h): 15.47 g/L
- Productivity ([7]; 9.25 h): 1.67 g EtOH × L^−1 × h^−1
- Yield ([7]; 9.25 h): 0.49 g EtOH/g consumed glucose and mannose
- viability at 10000 µM ([7]; 2.25 h): 91%
- viability at 10000 µM ([7]; 7 h): 96.7 ± 2.5%
- Fermentability (glucose consumption) ([7]; 15 mM, FIG. 11): fermented about as well as the NH4OH treated sample and the plain sugar solution
- Fermentability (glucose consumption) ([7]; 2.5-15 mM, FIG. 10): improved fermentability
